Legend:
Conditions in all cases: filed as activator
[1] = target: Carbonic anhydrase 4 (Homo sapiens) (UniProt P22748); test: Activation of human carbonic anhydrase 4 by stopped flow assay
[2] = target: Carbonic anhydrase 5A, mitochondrial (Homo sapiens) (UniProt P35218); test: Activation of human carbonic anhydrase 5A by stopped flow assay
[3] = target: Carbonic anhydrase 7 (Homo sapiens) (UniProt P43166); test: Activation of human carbonic anhydrase 7 by stopped flow assay
[4] = target: Carbonic anhydrase 14 (Homo sapiens) (UniProt Q9ULX7); test: Activation of human carbonic anhydrase 14 by stopped flow CO2 hydrase assay
Chain of Carbonic anhydrase 14 (Homo sapiens) (Q9ULX7 whole entry): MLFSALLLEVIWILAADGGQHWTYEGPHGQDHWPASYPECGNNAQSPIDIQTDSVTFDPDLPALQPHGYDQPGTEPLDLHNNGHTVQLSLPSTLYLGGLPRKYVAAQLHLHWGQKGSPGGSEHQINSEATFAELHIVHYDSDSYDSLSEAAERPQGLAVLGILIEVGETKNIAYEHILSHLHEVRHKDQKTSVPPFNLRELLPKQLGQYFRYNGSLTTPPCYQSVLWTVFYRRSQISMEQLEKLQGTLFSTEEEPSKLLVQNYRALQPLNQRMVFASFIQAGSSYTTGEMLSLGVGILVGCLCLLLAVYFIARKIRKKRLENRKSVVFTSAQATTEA

[5] = target: Carbonic anhydrase 13 (Homo sapiens) (UniProt Q8N1Q1); test: Activation of human carbonic anhydrase 13 by stopped flow assay
Chain of Carbonic anhydrase 13 (Homo sapiens) (Q8N1Q1 whole entry, looked up): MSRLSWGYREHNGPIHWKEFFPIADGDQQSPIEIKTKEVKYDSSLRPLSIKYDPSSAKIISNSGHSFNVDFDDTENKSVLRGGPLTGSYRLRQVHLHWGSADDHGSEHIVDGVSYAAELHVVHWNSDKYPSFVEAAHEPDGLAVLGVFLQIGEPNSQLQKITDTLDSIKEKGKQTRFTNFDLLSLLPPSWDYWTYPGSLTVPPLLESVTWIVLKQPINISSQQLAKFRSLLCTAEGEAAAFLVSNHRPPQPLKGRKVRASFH

[6] = target: Carbonic anhydrase 2 (Homo sapiens) (UniProt P00918); test: Activation of human carbonic anhydrase 2 by stopped flow assay

Chain of Carbonic anhydrase 7 (Homo sapiens) (P43166 whole entry): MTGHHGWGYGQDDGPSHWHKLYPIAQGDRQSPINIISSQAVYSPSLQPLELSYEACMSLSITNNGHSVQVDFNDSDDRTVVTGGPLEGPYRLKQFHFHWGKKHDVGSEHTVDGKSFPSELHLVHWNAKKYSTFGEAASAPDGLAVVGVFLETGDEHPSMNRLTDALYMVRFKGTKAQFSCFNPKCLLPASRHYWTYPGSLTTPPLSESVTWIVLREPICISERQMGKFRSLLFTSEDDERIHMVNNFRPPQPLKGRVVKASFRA
Chain of Carbonic anhydrase 5A, mitochondrial (Homo sapiens) (P35218 whole entry): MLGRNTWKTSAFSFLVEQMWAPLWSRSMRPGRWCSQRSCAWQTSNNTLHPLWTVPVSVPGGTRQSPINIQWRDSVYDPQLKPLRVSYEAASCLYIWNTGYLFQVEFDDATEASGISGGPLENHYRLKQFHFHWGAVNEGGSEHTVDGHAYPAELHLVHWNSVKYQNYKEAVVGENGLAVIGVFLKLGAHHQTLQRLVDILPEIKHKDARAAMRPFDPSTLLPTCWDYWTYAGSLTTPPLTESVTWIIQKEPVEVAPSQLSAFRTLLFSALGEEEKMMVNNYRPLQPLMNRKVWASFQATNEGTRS
Chain of Carbonic anhydrase 4 (Homo sapiens) (P22748 whole entry): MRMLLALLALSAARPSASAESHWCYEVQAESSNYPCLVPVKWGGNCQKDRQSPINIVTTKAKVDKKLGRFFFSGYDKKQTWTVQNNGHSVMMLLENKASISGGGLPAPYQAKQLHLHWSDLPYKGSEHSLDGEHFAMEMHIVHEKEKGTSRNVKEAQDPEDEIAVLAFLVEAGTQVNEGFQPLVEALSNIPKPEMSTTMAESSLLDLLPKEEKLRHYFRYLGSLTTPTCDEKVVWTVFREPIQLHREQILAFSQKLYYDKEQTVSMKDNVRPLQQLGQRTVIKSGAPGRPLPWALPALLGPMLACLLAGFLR

`CNC[C@H](O)c1ccc(O)c(O)c1` showed a KA [1] of 45 µM, a KA [2] of 63 µM and a KA [3] of 60 µM. For the same compound, the KA [4] was 36 µM.

`N[C@@H](Cc1c[nH]cn1)C(=O)O` was tested, and the KA [5] was 0.13 µM.

With `N[C@H](Cc1c[nH]c2ccccc12)C(=O)O` the KA [5] was 0.81 µM.

`NCCc1c[nH]cn1` was tested, and the KA [6] was 12.5 µM and the KA [5] was 4.6 µM.

For `N[C@H](Cc1c[nH]cn1)C(=O)O`, the KA [5] was 0.09 µM.
